Counter-ions that a name gives are not always drawn.
biological target: T1, human M1 receptor (Homo sapiens, UniProt P11229); test: In vitro functional assay of muscarinic acetylcholine receptor activity (aequorin calcium flux, reversal of EC80 acetylcholine response); type: cell-based; details: CHO-K1 cells stably expressing human M1 receptor with aequorin; acetylcholine at EC80; calcium flux (luminescence); read-out: M1 IC50
T1 sequence (P11229 1-460): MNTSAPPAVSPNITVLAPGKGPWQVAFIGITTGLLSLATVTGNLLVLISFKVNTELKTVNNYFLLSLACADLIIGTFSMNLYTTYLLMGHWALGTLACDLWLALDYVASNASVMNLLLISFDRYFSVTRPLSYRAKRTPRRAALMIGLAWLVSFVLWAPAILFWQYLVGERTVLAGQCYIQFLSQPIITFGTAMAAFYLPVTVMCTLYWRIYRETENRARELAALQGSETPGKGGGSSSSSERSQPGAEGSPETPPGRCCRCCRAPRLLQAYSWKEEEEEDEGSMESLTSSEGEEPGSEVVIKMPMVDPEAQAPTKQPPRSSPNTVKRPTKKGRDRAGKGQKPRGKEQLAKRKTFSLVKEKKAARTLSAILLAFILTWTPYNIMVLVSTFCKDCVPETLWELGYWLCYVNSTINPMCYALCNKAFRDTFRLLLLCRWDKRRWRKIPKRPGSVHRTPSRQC
Summary of the method: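 Antagonist mode: compound (final 0.1% DMSO) and coelenterazine-loaded M1/aequorin CHO-K1 cells incubated 30 min in the dark before EC80 acetylcholine addition. Calcium flash integrated as 40 s luminescence AUC; IC50 derived from dose-response curves.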

| Compound | IC50 [µM] |
| --- | --- |
| N#Cc1ccc(N2C3CCC2CN(C(=O)CCNC2(c4cccc(C#N)c4)CC2)C3)nc1 [Example 13, 6-(3-(3-((1-(3-cyanophenyl)cyclopropyl)amino)propanoyl)-3,8-diazabicyclo[3.2.1]octan-8-yl)nicotinonitrile] | 0.01 to 0.1 |
| N#Cc1ccc(N2C3CCC2CN(C(=O)COCC2(c4ccccc4)CC2)C3)nc1 [Example 187, 6-(3-(2-((1-phenylcyclopropyl)methoxy)acetyl)-3,8-diazabicyclo[3.2.1]octan-8-yl)nicotinonitrile] | 0.1 to 1 |
| COc1c(F)cccc1C(C)NCC(=O)N1CC2CCC(C1)N2c1ccc(C#N)cn1 (racemic) [Example 55, 6-(3-((1-(3-fluoro-2-methoxyphenyl)ethyl)glycyl)-3,8-diazabicyclo[3.2.1]octan-8-yl)nicotinonitrile] | < 0.01 |
| N#Cc1ccc(N2C3CCC2CN(C(=O)CCOC2(c4ccc(F)cc4)CCC2)C3)nc1 [Example 310, 6-(3-(3-(1-(4-fluorophenyl)cyclobutoxy)propanoyl)-3,8-diazabicyclo[3.2.1]octan-8-yl)nicotinonitrile] | < 0.01 |
| N#Cc1ccc(N2C3CCC2CN(C(=O)CCC(F)(F)c2ccc(F)cc2)C3)nc1 [Example 124, 6-(3-(4,4-difluoro-4-(4-fluorophenyl)butanoyl)-3,8-diazabicyclo[3.2.1]octan-8-yl)nicotinonitrile] | 0.01 to 0.1 |
| N#Cc1ccc(N2C3CCC2CN(C(=O)COC2(c4cc(F)ccc4Br)CC2)C3)nc1 [Example 220, 6-(3-(2-(1-(2-bromo-5-fluorophenyl)cyclopropoxy)acetyl)-3,8-diazabicyclo[3.2.1]-8-yl)nicotinonitrile] | < 0.01 |
| N#Cc1ccc(N2C3CCC2CN(C(=O)COC2(c4cncc(O)c4)CCC2)C3)nc1 [Example 313, 6-(3-(2-(1-(5-hydroxypyridin-3-yl)cyclobutoxy)acetyl)-3,8-diazabicyclo[3.2.1]octan-8-yl)nicotinonitrile] | < 0.01 |
| N#Cc1ccc(N2C3CCC2CN(C(=O)CNC2(c4ccccn4)CC2)C3)nc1 [Example 63, 6-(3-((1-(pyridin-2-yl)cyclopropyl)glycyl)-3,8-diazabicyclo[3.2.1]octan-8-yl)nicotinonitrile] | 1 to 10 |
| COc1ccc(F)c(C2(NCC(=O)N3CC4CCC(C3)N4c3ccc(C#N)cn3)CC2)c1 [Example 111, 6-(3-((1-(2-fluoro-5-methoxyphenyl)cyclopropyl)glycyl)-3,8-diazabicyclo[3.2.1]octan-8-yl)nicotinonitrile] | < 0.01 |
| COc1ccnc(C2(OCC(=O)N3CC4CCC(C3)N4c3ccc(C#N)cn3)CCC2)c1 [Example 255, 6-(3-(2-(1-(4-methoxypyridin-2-yl)cyclobutoxy)acetyl)-3,8-diazabicyclo[3.2.1]octan-8-yl)nicotinonitrile] | < 0.01 |
| COc1cc(C2(/C=C/C(=O)N3CC4CCC(C3)N4c3ccc(C#N)cn3)CCC2)ccn1 [Example 151, 6-(3-((E)-3-(1-(2-methoxypyridin-4-yl)cyclobutyl)acryloyl)-3,8-diazabicyclo[3.2.1]octan-8-yl)nicotinonitrile] | < 0.01 |
| N#Cc1ccc(N2C3CCC2CN(C(=O)COC2(c4ccncc4F)CCC2)C3)nc1 [Example 247, 6-(3-(2-(1-(3-fluoropyridin-4-yl)cyclobutoxy)acetyl)-3,8-diazabicyclo[3.2.1]octan-8-yl)nicotinonitrile] | < 0.01 |
| Cc1noc(C)c1C(F)(F)CCC(=O)N1CC2CCC(C1)N2c1ccc(C#N)cn1 [Example 126, 6-(3-(4-(3,5-dimethylisoxazol-4-yl)-4,4-difluorobutanoyl)-3,8-diazabicyclo[3.2.1]octan-8-yl)nicotinonitrile] | < 0.01 |
| CC(SCCC(=O)N1CC2CCC(C1)N2c1ccc(C#N)cn1)c1ccccc1 (racemic) [Example 134, 6-(3-(3-((1-phenylethyl)thio)propanoyl)-3,8-diazabicyclo[3.2.1]octan-8-yl)nicotinonitrile] | 0.1 to 1 |
| Cn1ccc(C2(OCC(=O)N3CC4CCC(C3)N4c3ccc(C#N)cn3)CCC2)cc1=O [Example 300, 6-(3-(2-(1-(1-methyl-2-oxo-1,2-dihydropyridm-4-yl)cyclobutoxy)acetyl)-3,8-diazabicyclo[3.2.1]octan-8-yl)nicotinonitrile] | 0.01 to 0.1 |
| CC(c1ccccc1)S(=O)(=O)CCC(=O)N1CC2CCC(C1)N2c1ccc(C#N)cn1 (racemic) [Example 174, 6-(3-(3-((1-phenylethyl)sulfonyl)propanoyl)-3,8-diazabicyclo[3.2.1]octan-8-yl)nicotinonitrile] | > 1 |

| Compound | IC50 [µM] |
| --- | --- |
| CC(SCCC(=O)N1CC2CCC(C1)N2c1ccc(C#N)cn1)c1ccc(F)cc1 (racemic) [Example 135, 6-((3-((1-(4-fluorophenyl)ethyl)thio)propanoyl)-3,8-diazabicyclo[3.2.1]octan-8-yl)nicotinonitrile] | 1 to 10 |
| N#Cc1ccc(N2C3CCC2CN(C(=O)COCC(F)(F)c2cccn4ncnc24)C3)nc1 [Example 278, 6-(3-(2-(2-([1,2,4]triazolo[1,5-a]pyridin-8-yl)-2,2-difluoroethoxy)acetyl)-3,8-diazabicyclo[3.2.1]octan-8-yl)nicotinonitrile] | < 0.01 |
| COc1cc(C(F)(F)CCC(=O)N2C[C@@H]3C[C@H]2CN3c2ccc(C#N)cn2)ccn1 [Example 154, 6-((1S,4S)-5-(4,4-difluoro-4-(2-methoxypyridin-4-yl)butanoyl)-2,5-diazabicyclo[2.2.1]heptan-2-yl)nicotinonitrile] | 1 to 10 |
| N#Cc1ccc(N2C3CCC2CN(C(=O)CNC2(c4cccc(C#N)c4)CC2)C3)nc1 [Example 62, 6-(3-((1-(3-cyanophenyl)cyclopropyl)glycyl)-3,8-diazabicyclo[3.2.1]octan-8-yl)nicotinonitrile] | 0.1 to 1 |
| COc1cc(C(F)(F)CCC(=O)N2CC3CCC(C2)N3c2ccc(C)nn2)ccn1 [Example 157, 4,4-difluoro-4-(2-methoxypyridin-4-yl)-1-(8-(6-methylpyridazin-3-yl)-3,8-diazabicyclo[3.2.1]octan-3-yl)butan-1-one] | 0.1 to 1 |
| COc1cc(C(F)(F)/C=C/C(=O)N2CC3CCC(C2)N3c2ccc(C#N)cn2)ccn1 [Example 139, 6-(3-((E)-4,4-difluoro-4-(2-methoxypyridin-4-yl)but-2-enoyl)-3,8-diazabicyclo[3.2.1]octan-8-yl)nicotinonitrile] | < 0.01 |
| N#Cc1ccc(N2C3CCC2CN(C(=O)COC2(c4ccc(F)cn4)CCC2)C3)nc1 [Example 249, 6-(3-(2-(1-(5-fluoropyridin-2-yl)cyclobutoxy)acetyl)-3,8-diazabicyclo[3.2.1]octan-8-yl)nicotinonitrile] | 0.01 to 0.1 |
| N#Cc1ccc(N2C3CCC2CN(C(=O)CCNC(CO)c2ccc(F)cc2)C3)nc1 [Example 131, 6-((3-(3-(((S)1-(4-fluorophenyl)-2-hydroxyethyl)amino)propanoyl)-3,8-diazabicyclo[3.2.1]octan-8-yl)nicotinonitrile] | 1 to 10 |
| COc1cc(C(F)(F)C2CC2C(=O)N2CC3CCC(C2)N3c2ccc(C#N)cn2)ccn1 (racemic) [Example 166, 6-(3-(2-(difluoro(2-methoxypyridin-4-yl)methyl)cyclopropane-1-carbonyl)-3,8-diazabicyclo[3.2.1]octan-8-yl)nicotinonitrile] | 1 to 10 |
| COc1ccc(C2(NCC(=O)N3CC4CCC(C3)N4c3ccc(C#N)cn3)CC2)cc1F [Example 108] | 0.1 to 1 |
| COc1cc(C2(OCC(=O)N3CC4CCC(C3)N4c3ccc(C#N)cn3)CCC2)ncn1 [Example 263, 6-(3-(2-(1-(6-methoxypyrimidin-4-yl)cyclobutoxy)acetyl)-3,8-diazabicyclo[3.2.1]octan-8-yl)nicotinonitrile] | 0.01 to 0.1 |
| COc1ccnc(C2(OCC(=O)N3CC4CCC(C3)N4c3ccc(C#N)cn3)CCC2)n1 [Example 264, 6-(3-(2-(1-(4-methoxypyrimidin-2-yl)cyclobutoxy)acetyl)-3,8-diazabicyclo[3.2.1]octan-8-yl)nicotinonitrile] | < 0.01 |
| COc1cc(C2(NCC(=O)N3CC4CCC(C3)N4c3ccc(C#N)cn3)CC2)c(F)cc1F [Example 113, 6-(3-((1-(2,4-difluoro-5-methoxyphenyl)cyclopropyl)glycyl)-3,8-diazabicyclo[3.2.1]octan-8-yl)nicotinonitrile] | < 0.01 |
| N#Cc1ccc(N2C3CCC2CN(C(=O)CNC2(c4ccncc4)CC2)C3)nc1 [Example 102, 6-(3-((1-(pyridin-4-yl)cyclopropyl)glycyl)-3,8-diazabicyclo[3.2.1]octan-8-yl)nicotinonitrile] | 0.1 to 1 |
| N#Cc1cc(N2C3CCC2CN(C(=O)CNC2(c4ccc(F)cc4F)CC2)C3)ccn1 [Example 84, 4-(3-((1-(2,4-difluorophenyl)cyclopropyl)glycyl)-3,8-diazabicyclo[3.2.1]octan-8-yl)picolinonitrile] | 0.1 to 1 |
| N#Cc1ccc(N2C3CCC2CN(C(=O)COCC2(c4ccncc4)CC2)C3)nc1 [Example 189, 6-(3-(2-((1-(pyridin-4-yl)cyclopropyl)methoxy)acetyl)-3,8-diazabicyclo[3.2.1]octan-8-yl)nicotinonitrile] | 1 to 10 |

same assay, conditions: M1 IC50, CHO-K1 cells stably expressing human M1 receptor with aequorin; acetylcholine at EC80; calcium flux (luminescence)

| Compound | IC50 [µM] |
| --- | --- |
| N#Cc1ccc(N2C3CCC2CN(C(=O)CCNC2(c4ccc(F)c(C#N)c4)CC2)C3)nc1 [Example 288, 6-(3-(3-((1-(3-cyano-4-fluorophenyl)cyclopropyl)amino)propanoyl)-3,8-diazabicyclo[3.2.1]octan-8-yl)nicotinonitrile formic acid Salt] | 0.01 to 0.1 |

— patent publication US12565501B2, “Muscarinic acetylcholine M1 receptor antagonists” (Contineum Therapeutics, Inc., priority 2019, dated 2026)
